The text below walks through data of patent publication US20260083789A1, “FORMULATION FOR STIMULATING HAIR GROWTH AND IMPROVING QUALITY AND METHOD OF PREPARATION OF THE SAME” (ARJUNA NATURAL PRIVATE LIMITED, priority 2022, published 2026).

Test [1] concerns Human dermal fibroblasts (HDFa) cells. The experiment in a line: MTT assay, cell viability / proliferation. It counts as cell-based. Conditions: HDFs. The method, then:
Human dermal fibroblasts (HDFa) cells were maintained in DMEM high glucose media (Himedia) with 10% FBS and 40 units/ml of penicillin & 40 μg/mL of streptomycin (Thermo Fisher) in 37° C. humidified chamber with 5% CO2. Cells were passaged after every 2-3 days using trypsin-EDTA.
Cells were trypsinized, centrifuged and resuspended in culture medium. Cells and then counted by trypan blue method using haemocytometer and plated at 5000 cells per 50 μl into wells of a 96 well microtiter plate. The cells were then incubated overnight under conditions appropriate for the cell line for adherence. […] 10 μl MTT reagent was then added to each well, after respective time period followed by incubation for 4 hours. After 4 hours, when the purple precipitate was clearly visible under the microscope, supernatant was removed carefully by pipette and 100 μl of solubilization solution (DMSO) was added to all wells. The plate was shaken softly for 20 minutes in the dark at room temperature. Then, the absorbance was taken of each well, including the blanks, at 570 nm with reference wavelength at 630 nm in a microtiter plate reader. The average values were determined from triplicate readings and subtracted the average value for the blank.
In general terms: Formazan colour is commonly taken as a measure of viable cells.

In test [2] the test system is HDFs. Briefly: In vitro cell based scratch assay (wound healing). Further details: species or system human. Conditions: negative control 89.798 %. The method, then: In vitro cell based scratch assay is one of the most apt and economic procedures for preliminary examination of wound healing potential of any medicinal extract. […] Cell migration was monitored at 0 hour, 24 hours and 48 hours and wound closure distance was calculated by Image J software.

As for `Nc1cc(N2CCCCC2)nc(N)[n+]1[O-]` [Minoxidil, 2,4-diamino-6 piperidino-pyrimidine-3-oxide], in test [1], the “time at which cell proliferation peaked” value was determined as 72 h and the “time to show efficacy / increase the rate of cell proliferation” value came to 48 h. The “cell proliferation in relation to concentration” value in test [1] (in contrast to the extract) is given as “increased cell proliferation at lower concentrations”. Moreover, the “closure of the gap created by the scratch” value in test [2] is on record as 89.358%.
